Measurements: patent US20040242476A1, “Male contraceptives” (The Population Council, Inc, priority 2001, published 2004)

Columns and labels:
[1] = test system: blood-testis barrier (BTB); test: Blood-testis barrier integrity by micropuncture, [125I]-BSA in STF and RTF; type: in vivo, rat; settings: for effect on BTB integrity: intratesticular injection 1.5 mg/testis
Method: Assessing the occludin-peptide induced disruption of the blood-testis barrier (BTB) by micropuncture techniques.
Briefly, 5 μg of BSA (Sigma, RIA grade, Mr 68 kDa) was radioiodinated by Iodogen (Fraker et al., 1978) using 1 mCi of [^125I]-sodium iodide (Amersham Pharmacia Biotech) as described (Cheng et al., 1983).
Detection of [^125]-BSA in seminiferous tubular fluid (STF) and rete testis fluid (RTF). 2, 4, 6, and 12-week after an intratesticular administration of 1.5 mg of either occludin or myotubularin peptide/testis as described above (administered at 3 sites to the right testis) where the left testis of the same animal was used as a control. Rats (n=4-6 rats per time point, approximately 250 gm b.w. at the time of peptide treatment) were anesthetized with ketamine HCl (Fort Dodge Laboratories, Inc., Fort Dodge Iowa) at 60 mg/kg b.w. Micropuncture was performed essentially as described (Turner et al., 1984; Stahler et al., 1991). Briefly, testes were exposed through an abdominal incision, and the efferent ducts were ligated with surgical silk thread. Testes were then returned to the scrotum, wound cleansed with 70% ethanol, surgically closed and animals were allowed to recover. Twenty-four hours after efferent duct ligation, rats were anesthetized by ketamine HCl, bilateral nephrectomy was performed to prevent renal excretion of [^125I]-BSA, and approximately 6×10^6 cpm of [^125I]-BSA was infused into the rat via jugular vein. Two hours after infusion, testes were removed, RTF and STF were collected as described (Turner et al, 1984; Stahler et al., 1991) for radioactivity determination in a γ-counter. The left testis from the same animal without receiving either the occludin or myotubularin peptide served as a control, and both STF and RTF were also collected for radioactivity determination to assess the integrity of the BTB.

[2] = test system: inter-Sertoli TJ-permeability barrier; test: Transepithelial electrical resistance (TER) across Sertoli cell epithelia; type: cell-based, rat
Method: Preparation of Sertoli cell cultures. Primary Sertoli cells were isolated from 20-day-old Sprague-Dawley rat testes as previously described (Cheng et al., 1986). For low cell density cultures, Sertoli cells were plated at 5×10^4 cells/cm^2 in 100-mm Petri dishes [approximately 4.5×10^6 cells/100-mm dish/9 ml Ham's F12 Nutrient Mixture/Dulbecco's Modified Eagle's Medium (F12/DMEM, 1:1, vol/vol, Life Technologies, Inc.); F12/DMEM were supplemented with 15 mM HEPES, 1.2 g/L sodium bicarbonate, 10 μg/ml bovine insulin, 5 μg/ml human transferrin, 2.5 ng/ml EGF, 20 mg/L gentamicin and 10 μg/ml bacitracin. Sertoli cells cultured under low cell density formed monolayer epithelia without the assembly of inter-Sertoli TJs when monitored by TER measurement (Grima et al., 1998). However, both adherens junctions (AJs) and gap junctions (GJs) were formed (Chung et al., 1999). For high cell density cultures, Sertoli cells were plated on Matrigel™ (Collaborative Biochemical Products, Belford, Mass.)-coated (diluted 1:7 with F12/DMEM, vol/vol) 24-well dishes (effective surface area, approximately 1.88 cm^2, with 2 ml F12/DMEM per well) at a density of 0.6-3×10^6 cells/cm^2 as previously described (Grima et al., 1998) to allow formation of TJs, AJs and GJs, mimicking Sertoli cells found in vivo when assessed by various criteria (Grima et al., 1992). Cell cultures were incubated in a humidified atmosphere of 95% air and 5% CO2 (vol/vol) at 35° C. and TER readings were recorded 24 hr later and designated as cultures at day 1.
Assessing the integrity of the inter-Sertoli TJ-permeability barrier by measuring the transepithelial electrical resistance (TER) across Sertoli cell epithelia To assess the effects of occludin peptide on the assembly of inter-Sertoli TJs, Sertoli cells isolated from 20-day-old rat testes were cultured at 1.2×10^6 cells/cm^2 to allow the assembly of inter-Sertoli TJs, and the TER, which is a quantitative measurement of TJ integrity, across the Sertoli cell epithelia was quantified as previously described (Wong et al., 2000; Grima et al. 1998). Cells were plated on Matrigel™ (1:7)-coated HA filters in the apical chamber (Millipore, Bedford, Mass.) (25, 28). Great care was taken so that air bubbles were not trapped between Sertoli cell aggregates, which is the major obstacle to obtain steady TER across the Sertoli cell epithelia since air bubbles create physical pores between adjacent Sertoli cells. TER across the Sertoli cell epithelia at specific time points was determined by a Millicell electrical resistance system as described (Grima et al., 1998; Cheng and Chung, 2001). The resistance in ohm was multiplied by the effective surface area of the bicameral unit (approximately 0.6 cm^2) to yield the area resistance (ohm.cm^2). The net value of electrical resistance was then computed by substracting the background, which was measured on the Matrigel-coated cell-free chambers, from values of Sertoli cell-plated chambers. To minimize temperature-induced fluctuations during TER measurement, cultures were stabilized at room temperature for 20-30 minutes prior to recording TER across the Sertoli cell epithelia. Synthetic occludin peptide at 0.2-4 μM was included in the basal (0.5 ml F12/DMEM containing 0.03% DMSO, vol/vol, DMSO was used to solubilize the peptide in medium) and apical (0.5 ml F12/DME containing 0.03% DMSO, vol/vol) chambers of the bicameral units 24 hours after freshly isolated Sertoli cells were plated onto Matrigel-coated units (day 1). […]

[3] = test system: spermatogenesis in adult rat testis; test: Intratesticular injection: testicular weight and histological analysis of the testis; type: in vivo
Method: Intratesticular injection of occludin peptide and histological analysis of the testis. To assess the in vivo effects of the occludin peptide on spermatogenesis, peptide was administered to testes of adult rats by direct intratesticular injection as follows. Peptide was suspended in 0.9% sterile saline, sterilized by exposure to UV for 5 minutes. […] First, UV treated peptide retained the same retention time on reverse-phase HPLC using a Vydac C18 column (4.6×250 mm, i.d.) (Cheng et al., 1998; Cheng et al., 1989) when compared to peptide prior to the UV treatment. Second, the primary sequence of the UV-trated peptide remain unaltered when direct protein microsequencing was performed as described (Mruk and Cheng, 1990; Cheng et al., 1998; Cheng et al., 1989). Adult rats weighing between 250 and 300 g body weight were anesthetized with Metofane® before treatment. Rats received either 300 μl of 0.9% sterile saline (vehicle control), no treatment (control), or 1.5-10 mg of occludin peptide suspended in 300 μl of 0.9% sterile saline intratesticularly. The right testis of an animal received the peptide or vehicle and the left testis of the same animal was not treated and was used as a control. Peptide or vehicle was administered at 3 sites/testis with about 100 μl sample per site essentially as previously described (Grima et al., 1998; Eng et al., 1994). In another control group, rats were injected with a synthetic 22-amino acid peptide of NH2—[…]—COOH based on a known Sertoli cell protein, rat myotubularin (rMTM) (Li et al., 2000; Li et al., 2001), which had no sequence homology with occludin. Three rats were used in each treatment group and rats were sacrificed by CO2 asphyxiation at specific time points. Testes were removed immediately and fixed in 10% neutral buffered formalin. Testes were embedded in paraffin, and dehydrated in graded ethanol. For morphological analysis, 5 μm sections were cut and stained with hematoxylin and eosin. About 50 sections were examined at different sites for each testis using an Olympus BX40 microscope (Tokyo, Japan), interfaced to an Olympus PM-30 Exposure Control Unit.
Following HPLC purification, occludin or myotubularin peptide was suspended in 0.9% sterile saline and sterilized under UV for 5 minutes. Each rat in the experimental group received an intratesticular injection of 300 μl of saline containing either 0.15 mg or 1.5 mg of the corresponding purified peptide. The peptide suspension was distributed in each testis at 3 sites (approximately […] per site) as described in Materials and Methods and detailed elsewhere (Grima et al., 1992; Eng et al., 1994). […] FIGS. 6D-F are another control set of testes where rats received an intratesticular injection of the myotubularin peptide at 10 (FIG. 6D), 23 (FIG. 6E), and 40 days (FIG. 6F) post-treatment.

Sertoli cells = test: Trypan blue dye-exclusion cell viability test; type: cell-based, rat; settings: peptide-treated cultures (data not shown)
[4] = Stability of peptide to UV sterilization (HPLC retention, microsequencing); type: physicochemical; settings: UV 5 minutes, suspension in 0.9% saline
Method: Intratesticular injection of occludin peptide and histological analysis of the testis. To assess the in vivo effects of the occludin peptide on spermatogenesis, peptide was administered to testes of adult rats by direct intratesticular injection as follows. Peptide was suspended in 0.9% sterile saline, sterilized by exposure to UV for 5 minutes. […] First, UV treated peptide retained the same retention time on reverse-phase HPLC using a Vydac C18 column (4.6×250 mm, i.d.) (Cheng et al., 1998; Cheng et al., 1989) when compared to peptide prior to the UV treatment. Second, the primary sequence of the UV-trated peptide remain unaltered when direct protein microsequencing was performed as described (Mruk and Cheng, 1990; Cheng et al., 1998; Cheng et al., 1989). Adult rats weighing between 250 and 300 g body weight were anesthetized with Metofane® before treatment. Rats received either 300 μl of 0.9% sterile saline (vehicle control), no treatment (control), or 1.5-10 mg of occludin peptide suspended in 300 μl of 0.9% sterile saline intratesticularly. The right testis of an animal received the peptide or vehicle and the left testis of the same animal was not treated and was used as a control. Peptide or vehicle was administered at 3 sites/testis with about 100 μl sample per site essentially as previously described (Grima et al., 1998; Eng et al., 1994). […]

[5] = 1.5 mg/testis, 2, 4, 6 and 12 weeks, vs rats without peptide

| appearance of the testis and the epididymis ([3]; after intratesticular injection) | effect of UV treatment on peptide structure [4] | Substance | radioactivity detected in RTF [1, 5] | radioactivity detected in STF [1, 5] | effect on BTB integrity [1] | effects to perturb the inter-Sertoli TJ barrier ([2]; 4 μM (data not shown)) | decline in TER compared to untreated controls ([2]; 4 μM, days 4-5) | toxicity to Sertoli cells ([2]; concluded from reversibility after peptide removal) | change in TER across Sertoli cell epithelia ([2]; peptide 0.2-4 μM added 24 hours after isolation, 1.2×10^6 cells/cm^2 (FIG. 4A)) | time until TER reading indistinguishable from controls after peptide removal (TJ barrier reassembly) ([2]; peptide removed on day 5 by two washes (FIG. 4B)) | reduction of seminiferous tubular diameter ([3]; 27 days, compared to control, vehicle or myotubularin peptide testes) | time for almost full recovery of testes ([3]; 68 days versus 27 days post-treatment) | germ cell repopulation ([3]; after 27 days post treatment) | elongated spermatids in seminiferous epithelium ([3]; between 8 and 16 days after treatment) | germ cells in epithelium, virtually all tubules examined ([3]; by 27 days after intratesticular injection) | morphology of tubules ([3]; by 47 days post treatment) | morphology of the seminiferous epithelium ([3]; by 68 days post treatment) | testicular weight ([3]; within 2 weeks after intratesticular injection of 0.15 mg or 1.5 mg, vs no treatment, vehicle or myotubularin peptide (FIG. 5)) | cell viability versus control cultures (Sertoli cells) |
| --- | --- | --- | --- | --- | --- | --- | --- | --- | --- | --- | --- | --- | --- | --- | --- | --- | --- | --- | --- |
| – | – | NH2—TKVNERYELCDTYPALLAVPAN—COOH (H-TKVNERYELCDTYPALLAVPAN-OH) [myotubularin peptide] | indistinguishable from control rats | indistinguishable from control rats | failed to induce disruption of the BTB | no apparent effects | – | – | – | – | – | – | – | – | – | – | – | – | – |
| appeared normal | did not alter its structure | H-GSQIYTICSQFYTPGGTGLYVD-OH [occludin peptide] | – | – | disruption of the BTB | – | approximately 50% | non-toxic | dose-dependent decline in TER | 3 to 4 days | 20-30% | ≤ 40 days | began to repopulate in the epithelium | began to deplete from the epithelium | Massive depletion of germ cells | spermatocytes were clearly visible in all the tubules examined | indistinguishable from control rats | reduction in testicular weight | no apparent differences |
